Data published in patent US11246314B2, “Trichome and pistil maturing formulation” (priority 2015, dated 2022).

Experiments:
Format in all cases: in vivo
Settings in all cases: in words
[1] = system: pistils of Cannabis plants; assay: Pistil maturation on sprayed Cannabis plants
Source text: (§1) Trials were done with sesame oil alone, in place of bud finisher and bud shield embodiments.
(§2) Add all ingredients to a gallon of water 7. Shake or mix well. Pour the final mixture 8 through a double mesh screen 41, into a convenient applicator such as a spray bottle 9 shown in FIG. 6. Apply directly to plants 10 over and under the leaves and flowers and upon the soil. Plant foliage should be sprayed on all surfaces until the solution is dripping off. Spray every 1-7 days as preferred as illustrated in FIG. 7.

powdery mildew = assay: Control of powdery mildew, mold and mildew on plants
Source text: as §1

[2] = system: trichomes of Cannabis plants; assay: Trichome maturation on sprayed Cannabis plants
Source text: as §1, §2

In the case of `O=C([O-])O.[K+]` [Potassium bicarbonate], the “effect on pistil maturation” value [1] was “fully matures pistils quickly”, the “efficacy against powdery mildew / mold and mildew” value (powdery mildew) was “very effective” and the “effect on trichome maturation” value [2] was “little to no effect”.
